Experimental data as given in US12595253B2, “Benzamides of pyrazolylamino-pyrimidinyl derivatives, and compositions and methods thereof” (LYNK PHARMACEUTICALS CO. LTD., priority 2019, dated 2026).

Assays:
Assay type in all cases: biochemical
[1] = target: T1, JAK1 (Homo sapiens, UniProt P23458); assay: JAK1 microfluidic kinase assay (Caliper EZ Reader II, FAM labeled peptide substrate)
T1 construct: purchased Carna Biosciences
Outline: (§1)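 Activity measured in 50 mM HEPES, 0.01% Brij35, 10 mM MgCl2, 2 mM DTT by microfluidic separation of phosphorylated FAM peptide. Enzyme conditions set for 10% substrate conversion.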

[2] = target: T2, JAK2 (Homo sapiens, UniProt O60674); assay: JAK2 microfluidic kinase assay (Caliper EZ Reader II, FAM labeled peptide substrate)
T2 construct: purchased Carna Biosciences
T2 sequence (O60674 whole entry): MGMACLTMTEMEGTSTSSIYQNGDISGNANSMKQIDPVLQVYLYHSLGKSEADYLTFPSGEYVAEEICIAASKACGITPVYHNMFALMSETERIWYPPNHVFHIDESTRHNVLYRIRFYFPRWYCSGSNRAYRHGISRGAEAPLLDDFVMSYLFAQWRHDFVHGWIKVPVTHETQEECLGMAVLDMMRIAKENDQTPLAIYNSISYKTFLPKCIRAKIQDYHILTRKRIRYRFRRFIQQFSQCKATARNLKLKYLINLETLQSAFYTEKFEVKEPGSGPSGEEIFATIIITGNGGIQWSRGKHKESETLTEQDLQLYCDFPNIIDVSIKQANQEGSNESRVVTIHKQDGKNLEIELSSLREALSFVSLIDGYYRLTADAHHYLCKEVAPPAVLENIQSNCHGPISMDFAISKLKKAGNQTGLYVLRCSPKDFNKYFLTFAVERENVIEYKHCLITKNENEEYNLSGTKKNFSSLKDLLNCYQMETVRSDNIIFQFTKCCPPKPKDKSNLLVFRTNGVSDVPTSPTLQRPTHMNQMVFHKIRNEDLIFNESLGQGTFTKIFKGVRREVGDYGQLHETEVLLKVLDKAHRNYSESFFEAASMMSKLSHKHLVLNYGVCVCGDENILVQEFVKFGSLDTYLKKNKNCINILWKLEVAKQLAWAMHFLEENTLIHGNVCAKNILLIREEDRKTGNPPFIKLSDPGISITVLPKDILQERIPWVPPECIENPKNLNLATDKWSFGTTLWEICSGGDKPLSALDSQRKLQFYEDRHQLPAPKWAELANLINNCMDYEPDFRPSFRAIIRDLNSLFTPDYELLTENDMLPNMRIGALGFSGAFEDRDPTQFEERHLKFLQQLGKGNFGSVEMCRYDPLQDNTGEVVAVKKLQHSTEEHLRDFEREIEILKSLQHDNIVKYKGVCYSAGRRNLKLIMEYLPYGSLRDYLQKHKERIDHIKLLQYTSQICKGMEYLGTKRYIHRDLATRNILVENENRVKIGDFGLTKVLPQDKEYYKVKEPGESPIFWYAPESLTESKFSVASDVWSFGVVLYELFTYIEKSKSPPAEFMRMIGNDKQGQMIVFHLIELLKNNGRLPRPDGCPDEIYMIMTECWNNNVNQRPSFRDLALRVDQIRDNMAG
Outline: as §1

[3] = target: T3, TYK2 (Homo sapiens, UniProt P29597); assay: TYK2 microfluidic kinase assay (Caliper EZ Reader II, FAM labeled peptide substrate); conditions: IC50 TYK2 ([…]) (1 mM ATP), TYK2 […], 1 mM ATP
T3 construct: purchased Carna Biosciences
T3 sequence (P29597 whole entry): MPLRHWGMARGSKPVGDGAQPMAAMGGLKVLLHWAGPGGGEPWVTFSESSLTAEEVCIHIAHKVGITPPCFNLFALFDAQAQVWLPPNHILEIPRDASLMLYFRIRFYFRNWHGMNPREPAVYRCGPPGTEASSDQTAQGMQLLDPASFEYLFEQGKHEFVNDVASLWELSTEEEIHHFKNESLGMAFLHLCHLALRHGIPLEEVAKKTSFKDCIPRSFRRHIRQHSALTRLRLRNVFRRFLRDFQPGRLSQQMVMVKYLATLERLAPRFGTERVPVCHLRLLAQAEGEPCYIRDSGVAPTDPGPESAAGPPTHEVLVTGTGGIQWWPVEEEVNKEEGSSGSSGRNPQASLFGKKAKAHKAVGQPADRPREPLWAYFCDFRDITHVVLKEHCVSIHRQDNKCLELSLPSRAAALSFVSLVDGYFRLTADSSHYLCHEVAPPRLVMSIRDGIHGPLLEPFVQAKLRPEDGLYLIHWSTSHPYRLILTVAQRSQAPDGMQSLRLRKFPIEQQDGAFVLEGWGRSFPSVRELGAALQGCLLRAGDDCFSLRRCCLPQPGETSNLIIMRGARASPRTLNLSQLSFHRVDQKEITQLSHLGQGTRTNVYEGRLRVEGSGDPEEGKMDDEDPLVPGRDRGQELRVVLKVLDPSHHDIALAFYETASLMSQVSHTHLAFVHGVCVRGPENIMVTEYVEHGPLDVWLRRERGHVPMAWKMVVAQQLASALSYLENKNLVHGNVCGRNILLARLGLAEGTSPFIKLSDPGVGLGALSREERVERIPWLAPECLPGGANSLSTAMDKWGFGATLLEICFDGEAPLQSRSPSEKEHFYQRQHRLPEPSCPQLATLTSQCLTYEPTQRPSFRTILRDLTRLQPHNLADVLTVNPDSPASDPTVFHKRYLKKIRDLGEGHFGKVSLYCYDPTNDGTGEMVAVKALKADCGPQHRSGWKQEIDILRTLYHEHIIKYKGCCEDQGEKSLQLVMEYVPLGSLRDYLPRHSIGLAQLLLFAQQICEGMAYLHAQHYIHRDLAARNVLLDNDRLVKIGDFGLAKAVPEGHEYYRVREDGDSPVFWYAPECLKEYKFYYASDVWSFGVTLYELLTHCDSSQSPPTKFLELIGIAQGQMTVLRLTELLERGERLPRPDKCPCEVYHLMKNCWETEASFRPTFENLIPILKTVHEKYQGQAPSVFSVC
Protocol: Compounds were tested against JAK1, JAK2, JAK2V617F and TYK2. Assay Formats: JAK activity was determined in the reaction buffer 50 mM HEPES, 0.01% Brij35, 10 mM MgCl2, 2 mM DTT by a microfluidic assay. The phosphorylation of a FAM labeled peptide substrate was monitored in the Caliper EZ Reader II (Perkin Elmer). The assay condition for each batch of enzyme (Carna Biosciences) was optimized to obtain 10% conversion rate of peptide substrate. The test compounds were dissolved in DMSO to a stock concentration of 10 mM. 3-fold serially diluted compounds with top concentration of 5 μM were pre-incubated with JAK1, JAK2, JAK2V617F or TYK2 at indicated concentrations for 10 min at ambient temperature. The final DMSO concentration of assay mixture was 1%. […] The reaction was stopped by adding 50 mM EDTA. The reaction time for JAK1, JAK2, JAK2V617F and TYK2 was 120 min, 20 min, 30 min and 10 min, respectively. […] And the well without compound but with equivalent DMSO was defined as no inhibition. The percent inhibition was calculated by the following formula. % Inhibition=(Conversionmax−Conversionsample)/(Conversionmax−Conversionmin)*100 • Conversionmax means the conversion rate in the positive well without addition of compound • Conversionmin means the conversion rate in the well without addition of enzyme • Conversionsample means the conversion rate of test compounds The dose-response (percent inhibition) curve was plotted and IC50 values were determined by GraphPad software.

[4] = target: T4, JAK2V617F (Homo sapiens, UniProt O60674, V617F); assay: JAK2V617F microfluidic kinase assay (Caliper EZ Reader II, FAM labeled peptide substrate); conditions: JAK2V617F 2.5 nM, 1 mM ATP
T4 construct: purchased Carna Biosciences
T4 sequence (O60674 whole entry V617F): as the sequence (O60674 whole entry) above, with V617F counted along it
Outline: as §1

[5] = IC50 JAK1 (5 nM) (1 m MATP), JAK1 5 nM, 1 mM ATP
[6] = IC50 JAK2 ([…]) (1 mM ATP), 1 mM ATP

T1 sequence (P23458 whole entry): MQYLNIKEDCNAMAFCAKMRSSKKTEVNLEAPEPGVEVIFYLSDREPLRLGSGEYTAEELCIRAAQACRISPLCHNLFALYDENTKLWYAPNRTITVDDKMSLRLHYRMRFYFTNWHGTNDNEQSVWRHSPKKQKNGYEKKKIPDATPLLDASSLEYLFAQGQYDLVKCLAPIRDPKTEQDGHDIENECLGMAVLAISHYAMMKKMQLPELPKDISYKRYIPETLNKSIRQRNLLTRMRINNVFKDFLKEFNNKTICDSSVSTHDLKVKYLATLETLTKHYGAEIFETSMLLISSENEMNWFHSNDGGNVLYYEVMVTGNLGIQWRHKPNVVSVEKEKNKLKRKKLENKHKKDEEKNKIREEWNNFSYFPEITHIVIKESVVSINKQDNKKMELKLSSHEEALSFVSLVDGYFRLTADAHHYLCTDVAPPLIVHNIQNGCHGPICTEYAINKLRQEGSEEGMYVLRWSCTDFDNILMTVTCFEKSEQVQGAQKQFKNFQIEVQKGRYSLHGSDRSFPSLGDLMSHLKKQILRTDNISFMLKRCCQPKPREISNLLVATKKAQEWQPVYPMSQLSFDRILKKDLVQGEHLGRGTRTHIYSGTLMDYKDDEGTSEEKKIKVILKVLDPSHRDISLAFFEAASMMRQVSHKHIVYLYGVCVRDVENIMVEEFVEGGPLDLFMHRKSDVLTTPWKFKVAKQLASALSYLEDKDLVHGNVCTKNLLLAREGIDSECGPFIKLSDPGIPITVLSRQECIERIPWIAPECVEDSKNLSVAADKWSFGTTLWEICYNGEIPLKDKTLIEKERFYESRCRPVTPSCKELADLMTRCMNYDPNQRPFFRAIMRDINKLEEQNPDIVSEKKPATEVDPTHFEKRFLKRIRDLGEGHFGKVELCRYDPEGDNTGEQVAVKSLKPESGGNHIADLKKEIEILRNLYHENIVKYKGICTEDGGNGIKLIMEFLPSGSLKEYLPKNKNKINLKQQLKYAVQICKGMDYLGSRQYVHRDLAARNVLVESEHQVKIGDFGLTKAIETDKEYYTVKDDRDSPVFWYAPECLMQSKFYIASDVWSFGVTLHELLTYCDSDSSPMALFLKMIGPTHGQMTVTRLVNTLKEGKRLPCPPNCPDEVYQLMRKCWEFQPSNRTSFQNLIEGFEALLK

IC50 [1, 5]	IC50 [2, 6]	IC50 [3]	IC50 [4]	IC50 ([1]; IC50 JAK1 (10 nM) (Km ATP), JAK1 10 nM, Km ATP)	IC50 ([2]; IC50 JAK2 ([…]) (Km ATP), Km ATP)	Structure (SMILES)
7.13 nM	0.81 nM	38.2 nM	57.2 nM			Cc1cnc(Nc2cnn(C3CCN(C)CC3)c2)nc1-c1ccc(C(=O)NCC#N)cc1 [Example 49, N-(cyanomethyl)-4-(5-methyl-2-((1-(1-methylpiperidin-4-yl)-1H-pyrazol-4-yl)amino)pyrimidin-4-yl)benzamide]
69.7 nM	293 nM	198 nM	658 nM			C[C@@H](C#N)NC(=O)c1ccc(-c2nc(Nc3cnn(CC#N)c3)ncc2F)cc1 [Example 53, (S)—N-(1-cyanoethyl)-4-(2-((1-(cyanomethyl)-1H-pyrazol-4-yl)amino)-5-fluoropyrimidin-4-yl)benzamide]
23.6 nM	83.4 nM	111 nM	136 nM			CC[C@@H](C#N)NC(=O)c1ccc(-c2nc(Nc3cnn(C4CCN(C)CC4)c3)ncc2F)cc1 [Example 59, (S)—N-(1-cyanopropyl)-4-(5-fluoro-2-((1-(1-methylpiperidin-4-yl)-1H-pyrazol-4-yl)amino)pyrimidin-4-yl)benzamide]
22.7 nM	0.58 nM	370 nM	7.74 nM			CC(C)(C#N)CNC(=O)c1ccc(-c2nc(Nc3cnn(C4CCOCC4)c3)ncc2Cl)cc1 [Example 80, 4-(5-Chloro-2-((1-(tetrahydro-2H-pyran-4-yl)-1H-pyrazol-4-yl)amino)pyrimidin-4-yl)-N-(2-cyano-2-methylpropyl)benzamide]
19.6 nM	46.5 nM	83 nM	115 nM	3.32 nM	1.3 nM	Cc1cnc(Nc2cnn(C)c2)nc1-c1ccc(C(=O)NCC#N)cc1 [Example 11, N-(cyanomethyl)-4-(5-methyl-2-((1-methyl-1H-pyrazol-4-yl)amino)pyrimidin-4-yl)benzamide]
4.24 nM	32.2 nM	57.3 nM				CC[C@@H](C#N)NC(=O)c1ccc(-c2nc(Nc3cnn(C(C)C(F)(F)F)c3)ncc2C)cc1 (single isomer, unassigned) [Example 226, N—((S)-1-Cyanopropyl)-4-(5-methyl-2-((1-((S*)-1,1,1-trifluoropropan-2-yl)-1H-pyrazol-4-yl)amino)pyrimidin-4-yl)benzamide]
2.71 nM	39.8 nM	40.9 nM				CC[C@@H](C#N)NC(=O)c1ccc(-c2nc(Nc3cnn(CCC#N)c3)ncc2C)cc1 [Example 217, (S)-4-(2-((1-(2-cyanoethyl)-1H-pyrazol-4-yl)amino)-5-methylpyrimidin-4-yl)-N-(1-cyanopropyl)benzamide]
2.45 nM	22.5 nM	14.7 nM				CCC[C@@H](C#N)NC(=O)c1ccc(-c2nc(Nc3cnn(CCO)c3)ncc2C)cc1 [Example 192, (S)—N-(1-cyanobutyl)-4-(2-((1-(2-hydroxyethyl)-1H-pyrazol-4-yl)amino)-5-methylpyrimidin-4-yl)benzamide]
1.63 nM	41.3 nM	53.9 nM				Cc1cnc(Nc2cnn(CCO)c2)nc1-c1ccc(C(=O)N[C@H](C#N)C(C)C)cc1 [Example 191, (S)—N-(1-cyano-2-methylpropyl)-4-(2-((1-(2-hydroxyethyl)-1H-pyrazol-4-yl)amino)-5-methylpyrimidin-4-yl)benzamide]
18.3 nM		70 nM	51.7 nM			Cc1cnc(Nc2cnn(C3CCN(C)C(=O)C3)c2)nc1-c1ccc(C(=O)NCC#N)cc1 (stereo not shown) [Example 66, N-(cyanomethyl)-4-(5-methyl-2-((1-(1-methyl-2-oxopiperidin-4-yl)-1H-pyrazol-4-yl)amino)pyrimidin-4-yl)benzamide]
34.3 nM	210 nM	304 nM				Cc1cnc(Nc2cnn(CC#N)c2)nc1-c1ccc(C(=O)N[C@H](C)C#N)cc1 [Example 54, (R)—N-(1-cyanoethyl)-4-(2-((1-(cyanomethyl)-1H-pyrazol-4-yl)amino)-5-methylpyrimidin-4-yl)benzamide]
1.84 nM	0.78 nM	0.88 nM				CC[C@@H](C#N)NC(=O)c1ccc(-c2nc(Nc3cnn(C4CCNCC4)c3)ncc2C)cc1 [Example 171, (S)—N-(1-Cyanopropyl)-4-(5-methyl-2-((1-(piperidin-4-yl)-1H-pyrazol-4-yl)amino)pyrimidin-4-yl)benzamide]
13 nM	< 0.25 nM	58 nM				N#CCNC(=O)c1ccc(-c2nc(Nc3cnn(C4CCN(C(=O)CO)CC4)c3)ncc2Cl)cc1 [Example 218, 4-(5-Chloro-2-((1-(1-(2-hydroxyacetyl)piperidin-4-yl)-1H-pyrazol-4-yl)amino)pyrimidin-4-yl)-N-(cyanomethyl)benzamide]
4.02 nM	44 nM	85 nM				C[C@@H](C#N)NC(=O)c1ccc(-c2nc(Nc3cnn(CCC#N)c3)ncc2Cl)cc1 [Example 189, (S)-4-(5-Chloro-2-((1-(2-cyanoethyl)-1H-pyrazol-4-yl)amino)pyrimidin-4-yl)-N-(1-cyanoethyl)benzamide]
20.5 nM	0.66 nM	58.1 nM				CC[C@@H](C#N)NC(=O)c1ccc(-c2nc(Nc3cnn(C4CCCN(C)C4)c3)ncc2C)cc1 (stereo partly drawn) [Example 211, N—((S)-1-cyanopropyl)-4-(5-methyl-2-((1-(1-methylpiperidin-3-yl)-1H-pyrazol-4-yl)amino)pyrimidin-4-yl)benzamide]
9.9 nM	0.43 nM	2.97 nM				Cc1cnc(Nc2cnn([C@H]3C[C@@H](C)N[C@@H](C)C3)c2)nc1-c1ccc(C(=O)N[C@@H](C)C#N)cc1 [Example 232, N—((S)-1-cyanoethyl)-4-(2-((1-((2S,4r,6R)-2,6-dimethylpiperidin-4-yl)-1H-pyrazol-4-yl)amino)-5-methylpyrimidin-4-yl)benzamide]
11.4 nM	2.39 nM	88.2 nM				CC[C@@H](C#N)NC(=O)c1ccc(-c2nc(Nc3cnn(C4CCCNC4)c3)ncc2C)cc1 (stereo partly drawn) [Example 210, N—((S)-1-cyanopropyl)-4-(5-methyl-2-((1-(piperidin-3-yl)-1H-pyrazol-4-yl)amino)pyrimidin-4-yl)benzamide]
2.47 nM	25.2 nM	39.7 nM				C[C@@H](C#N)NC(=O)c1ccc(-c2nc(Nc3cnn(CCO)c3)ncc2Cl)cc1 [Example 186, (S)-4-(5-chloro-2-((1-(2-hydroxyethyl)-1H-pyrazol-4-yl)amino)pyrimidin-4-yl)-N-(1-cyanoethyl)benzamide]
2.9 nM	18.3 nM	20.4 nM				C[C@@H](C#N)NC(=O)c1ccc(-c2nc(Nc3cn[nH]c3)ncc2Cl)cc1 [Example 188, (S)-4-(2-((1H-pyrazol-4-yl)amino)-5-chloropyrimidin-4-yl)-N-(1-cyanoethyl)benzamide]
15.2 nM	< 0.25 nM	50.6 nM				Cc1cnc(Nc2cnn(C3CCN(C(=O)CO)CC3)c2)nc1-c1ccc(C(=O)NCC#N)cc1 [Example 207, N-(cyanomethyl)-4-(2-((1-(1-(2-hydroxyacetyl)piperidin-4-yl)-1H-pyrazol-4-yl)amino)-5-methylpyrimidin-4-yl)benzamide]
1.35 nM	0.85 nM	1.1 nM				CCC[C@@H](C#N)NC(=O)c1ccc(-c2nc(Nc3cnn(C4CCN(C)CC4)c3)ncc2C)cc1 [Example 176, (S)—N-(1-cyanobutyl)-4-(5-methyl-2-((1-(1-methylpiperidin-4-yl)-1H-pyrazol-4-yl)amino)pyrimidin-4-yl)benzamide]
14.3 nM	< 0.25 nM	9.11 nM				Cc1cnc(Nc2cnn(C3CCC(O)CC3)c2)nc1-c1ccc(C(=O)N[C@@H](C)C#N)cc1 (stereo partly drawn) [Example 209, (S)—N-(1-cyanoethyl)-4-(2-((1-(4-hydroxycyclohexyl)-1H-pyrazol-4-yl)amino)-5-methylpyrimidin-4-yl)benzamide]
80.6 nM	1.63 nM	245 nM				Cc1cnc(Nc2cnn([C@@H]3C[C@@H](C)N[C@@H](C)C3)c2)nc1-c1ccc(C(=O)N[C@@H](C)C#N)cc1 [Example 231, N—((S)-1-cyanoethyl)-4-(2-((1-((2S,4s,6R)-2,6-dimethylpiperidin-4-yl)-1H-pyrazol-4-yl)amino)-5-methylpyrimidin-4-yl)benzamide]
